Values of other authors in patent US6458821B1, “N-substituted azabicycloheptane derivatives, production and use thereof” (Abbott Laboratories, priority 1998, dated 2002).

Key:
D2 = D2 (Homo sapiens, UniProt P14416); settings: D4/5-HT2A versus D2; background statement
[1] = limits the dosage of substance A
serotonin 2A receptor = serotonin 2A receptor (Homo sapiens, UniProt P28223); settings: background statement on substance A
dopamine D4 receptor = target: T1, dopamine D4 receptor (Homo sapiens, UniProt P21917); settings: background statement on substance A
T1 sequence (P21917 1-419): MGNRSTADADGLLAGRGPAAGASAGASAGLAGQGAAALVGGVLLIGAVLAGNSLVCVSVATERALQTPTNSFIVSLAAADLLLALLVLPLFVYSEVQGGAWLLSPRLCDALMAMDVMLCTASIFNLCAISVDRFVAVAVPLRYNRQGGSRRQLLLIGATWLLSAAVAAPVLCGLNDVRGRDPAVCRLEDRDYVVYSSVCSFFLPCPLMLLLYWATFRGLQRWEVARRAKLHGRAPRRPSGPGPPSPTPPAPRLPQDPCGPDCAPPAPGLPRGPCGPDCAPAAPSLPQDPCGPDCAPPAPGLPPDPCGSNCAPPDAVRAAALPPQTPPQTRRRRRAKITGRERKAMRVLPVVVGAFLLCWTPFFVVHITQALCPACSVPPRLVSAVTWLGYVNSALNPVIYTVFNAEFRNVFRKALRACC

serotonin 2A receptor, sequence (P28223 whole entry): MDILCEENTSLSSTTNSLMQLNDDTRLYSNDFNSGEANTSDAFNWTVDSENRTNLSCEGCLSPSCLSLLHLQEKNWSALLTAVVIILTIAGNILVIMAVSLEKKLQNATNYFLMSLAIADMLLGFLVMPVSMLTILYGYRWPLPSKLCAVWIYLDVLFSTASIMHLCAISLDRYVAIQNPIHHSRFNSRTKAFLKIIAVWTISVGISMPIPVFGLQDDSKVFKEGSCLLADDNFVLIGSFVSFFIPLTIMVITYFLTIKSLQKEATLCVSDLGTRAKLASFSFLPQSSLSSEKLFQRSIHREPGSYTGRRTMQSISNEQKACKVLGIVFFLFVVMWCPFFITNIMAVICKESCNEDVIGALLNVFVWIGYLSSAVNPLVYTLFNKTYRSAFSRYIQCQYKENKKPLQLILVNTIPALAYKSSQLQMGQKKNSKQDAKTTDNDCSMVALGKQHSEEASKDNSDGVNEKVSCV
D2, sequence (P14416 whole entry): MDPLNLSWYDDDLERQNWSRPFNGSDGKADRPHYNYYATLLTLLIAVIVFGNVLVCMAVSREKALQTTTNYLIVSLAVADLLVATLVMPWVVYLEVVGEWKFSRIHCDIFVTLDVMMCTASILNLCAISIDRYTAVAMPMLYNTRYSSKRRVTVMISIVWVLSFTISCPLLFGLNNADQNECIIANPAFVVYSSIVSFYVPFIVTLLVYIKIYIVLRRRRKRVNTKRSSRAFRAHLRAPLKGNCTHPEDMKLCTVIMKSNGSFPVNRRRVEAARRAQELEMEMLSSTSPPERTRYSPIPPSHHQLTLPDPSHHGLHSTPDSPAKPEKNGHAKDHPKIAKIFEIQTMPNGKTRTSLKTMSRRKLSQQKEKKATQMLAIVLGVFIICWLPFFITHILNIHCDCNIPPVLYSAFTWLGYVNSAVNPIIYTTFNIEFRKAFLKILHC

## O=c1[nH]c2ccccc2c(=O)n1CCN1C[C@H]2C[C@H](c3ccc(F)cc3)[C@H]2C1 [substance A, (+)-(1S,5R,6S)-exo-3-[2-[6-(4-fluorophenyl)-3-azabicyclo[3.2.0]-heptan-3-yl]ethyl]-1H,3H-quinazoline-2,4-dione]
D2
  selectivity versus D2: good selectivity
[1]
  prolongations in the QT interval in the ECG: prolongations which occur in the QT interval
Serotonin 2A receptor
  5-HT2A affinity: high
Dopamine D4 receptor
  D4 affinity: high
